Reference: ChEMBL document CHEMBL4420076, “Amylin and calcitonin receptor agonist” (2017)
Numbered stars: 1 amine (or outer) side, 2 acyl side, 3 side chain; on linkers, the order of the positions; unused ones are H or OH. Peptide text beside a SMILES is read from it. * marks the point of attachment. C20 diacid = O=C(O)CCCCCCCCCCCCCCCCCCC(=O)*; γGlu = O=C(O)[C@H](CCC(=O)[*:2])N[*:1]

Tests used:
[1] = Solubility in 100 mM bistrispropane buffer at pH 6.5 incubated for 18 hrs by UPLC analysis; assay type: physicochemical
Calcitonin receptor [2] = molecular target: T1, Calcitonin receptor (Homo sapiens, UniProt P30988); assay: Agonist activity at human calcitonin receptor expressed in BHK570 cells assessed as increase in intracellular cAMP concentration incubated for 3 hrs in absence of albumin by CRE luciferase reporter gene assay; assay type: functional, cell-based
T1 sequence (P30988 whole entry): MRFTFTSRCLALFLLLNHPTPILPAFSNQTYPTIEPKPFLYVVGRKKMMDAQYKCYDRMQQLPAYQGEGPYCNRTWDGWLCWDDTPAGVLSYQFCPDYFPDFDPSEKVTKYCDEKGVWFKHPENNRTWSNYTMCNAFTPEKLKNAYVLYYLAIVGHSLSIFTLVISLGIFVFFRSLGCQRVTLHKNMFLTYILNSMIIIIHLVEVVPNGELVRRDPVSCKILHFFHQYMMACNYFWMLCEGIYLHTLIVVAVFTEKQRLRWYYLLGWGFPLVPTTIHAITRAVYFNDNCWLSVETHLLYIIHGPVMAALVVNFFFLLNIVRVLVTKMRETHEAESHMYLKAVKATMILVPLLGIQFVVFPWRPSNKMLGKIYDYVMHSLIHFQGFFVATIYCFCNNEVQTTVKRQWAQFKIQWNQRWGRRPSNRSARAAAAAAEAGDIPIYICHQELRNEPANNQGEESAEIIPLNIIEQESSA

[3] = Solubility in 100 mM glycylglycine buffer at pH 3.0 incubated for 18 hrs by UPLC analysis; assay type: physicochemical
[4] = Solubility in 100 mM glycylglycine buffer at pH 4.0 incubated for 18 hrs by UPLC analysis; assay type: physicochemical
Rattus norvegicus [5] = assay: Reduction in food intake in Sprague-Dawley rat at 3 nmol/kg measured 0 to 24 hrs post dose relative to control; assay type: functional; parameters: scale not given: the % may be the effect or the level left
Rattus norvegicus [6] = assay: Reduction in food intake in Sprague-Dawley rat at 3 nmol/kg measured 24 to 48 hrs post dose relative to control; assay type: functional; parameters: scale not given: the % may be the effect or the level left
[7] = Stability in pH 7.5 buffer assessed as lag time for fibril formation at 1 uM by Thioflavin T based fluorescence assay; assay type: physicochemical; conditions: pH 7.5, 1 µM
[8] = Stability in pH 7.5 buffer assessed as compound recovery at 1 uM by Thioflavin T based fluorescence assay; assay type: physicochemical; conditions: read-out: Drug recovery
[9] = molecular target: T2, Amylin receptor AMY3; CALCR/RAMP3 (Homo sapiens, UniProt O60896+P30988); assay: Agonist activity at human amylin receptor expressed in BHK570 cells co-expressing RAMP3 assessed as increase in intracellular cAMP concentration incubated for 3 hrs in presence of 10% FBS by CRE luciferase reporter gene assay; assay type: functional, cell-based
T2 sequence (P30988 whole entry): T1 sequence (P30988 whole entry)
T2 sequence (O60896 whole entry): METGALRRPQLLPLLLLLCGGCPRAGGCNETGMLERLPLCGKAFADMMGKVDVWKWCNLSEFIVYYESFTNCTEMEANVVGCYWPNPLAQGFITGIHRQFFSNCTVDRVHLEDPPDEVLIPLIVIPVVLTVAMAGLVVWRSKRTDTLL

[10] = Solubility in 100 mM bistrispropane buffer at pH 6.0 incubated for 18 hrs by UPLC analysis; assay type: physicochemical
[11] = Solubility in 100 mM bistrispropane buffer at pH 8.0 incubated for 18 hrs by UPLC analysis; assay type: physicochemical
Calcitonin receptor [12] = molecular target: T1, Calcitonin receptor; assay: Agonist activity at human calcitonin receptor expressed in BHK570 cells assessed as increase in intracellular cAMP concentration incubated for 3 hrs in presence of 10% FBS by CRE luciferase reporter gene assay; assay type: functional, cell-based
[13] = Solubility in 100 mM bistrispropane buffer at pH 7.0 incubated for 18 hrs by UPLC analysis; assay type: physicochemical
[14] = Solubility in 100 mM bistrispropane buffer at pH 7.5 incubated for 18 hrs by UPLC analysis; assay type: physicochemical
[15] = molecular target: T2, Amylin receptor AMY3; CALCR/RAMP3; assay: Agonist activity at human amylin receptor expressed in BHK570 cells co-expressing RAMP3 assessed as increase in intracellular cAMP concentration incubated for 3 hrs in absence of albumin by CRE luciferase reporter gene assay; assay type: functional, cell-based

SMILES	solubility at 18 h [1] [µM]	EC50 (Calcitonin receptor [2]) [pM]	solubility at 18 h [3] [µM]	solubility at 18 h [4] [µM]	Activity (Rattus norvegicus [5]) [%]	Activity (Rattus norvegicus [6]) [%]	Time [7] [h]	remaining at 1 µM [8] [%]	EC50 [9] [pM]	solubility at 18 h [10] [µM]	solubility at 18 h [11] [µM]	EC50 (Calcitonin receptor [12]) [pM]	solubility at 18 h [13] [µM]	solubility at 18 h [14] [µM]	EC50 [15] [pM]
CC(C)C[C@H](NC(=O)CNC(=O)[C@H](CO)NC(=O)[C@H](C)NC(=O)CC[C@H](NC(=O)CCCCCCCCCCCCCCCCCCC(=O)O)C(=O)O)C(=O)N[C@@H](CO)C(=O)N[C@H](C(=O)N[C@@H](C)C(=O)N[C@H](C(=O)N[C@@H](CC(C)C)C(=O)NCC(=O)N[C@@H](CCCNC(=N)N)C(=O)N[C@@H](CC(C)C)C(=O)N[C@@H](CO)C(=O)N[C@@H](C)C(=O)N[C@@H](CCC(=O)O)C(=O)N[C@@H](CC(C)C)C(=O)N[C@@H](Cc1cnc[nH]1)C(=O)N[C@@H](CCC(=O)O)C(=O)N[C@@H](CC(C)C)C(=O)N[C@@H](C)C(=O)N[C@H](C(=O)N[C@@H](Cc1ccc(O)cc1)C(=O)N1CCC[C@H]1C(=O)N[C@@H](CCCNC(=N)N)C(=O)N[C@H](C(=O)N[C@@H](CCC(=O)O)C(=O)N[C@H](C(=O)NCC(=O)N[C@@H](CO)C(=O)NCC(=O)N[C@H](C(=O)N[C@@H](Cc1ccc(O)cc1)C(N)=O)[C@@H](C)O)[C@@H](C)O)[C@@H](C)O)[C@@H](C)O)C(C)C)[C@@H](C)O ({C20 diacid-γGlu}-ASGLSTAVLGRLSAELHELATYPRTETGSGTY-NH2)	≥ 200	70	≥ 200	≥ 200	26	28	> 45	100	122	≥ 200	≥ 200	53	≥ 200	≥ 200	–
CC(C)C[C@H](NC(=O)CNC(=O)[C@H](CO)NC(=O)[C@H](C)NC(=O)CC[C@H](NC(=O)CCCCCCCCCCCCCCCCCCC(=O)O)C(=O)O)C(=O)N[C@@H](CO)C(=O)N[C@H](C(=O)N[C@@H](C)C(=O)N[C@H](C(=O)N[C@@H](CC(C)C)C(=O)NCC(=O)N[C@@H](CCCNC(=N)N)C(=O)N[C@@H](CC(C)C)C(=O)N[C@@H](CO)C(=O)N[C@@H](CCC(N)=O)C(=O)N[C@@H](CCC(=O)O)C(=O)N[C@@H](CC(C)C)C(=O)N[C@@H](Cc1cnc[nH]1)C(=O)N[C@@H](CCC(=O)O)C(=O)N[C@@H](CC(C)C)C(=O)N[C@@H](CCC(N)=O)C(=O)N[C@H](C(=O)N[C@@H](CC(C)C)C(=O)N[C@@H](CCC(N)=O)C(=O)N[C@H](C(=O)N[C@@H](Cc1ccc(O)cc1)C(=O)N1CCC[C@H]1C(=O)N[C@@H](CCCNC(=N)N)C(=O)N[C@H](C(=O)N[C@@H](CCC(=O)O)C(=O)N[C@H](C(=O)NCC(=O)N[C@@H](CO)C(=O)N[C@@H](CCC(N)=O)C(=O)N[C@H](C(=O)N[C@@H](Cc1ccc(O)cc1)C(N)=O)[C@@H](C)O)[C@@H](C)O)[C@@H](C)O)[C@@H](C)O)[C@@H](C)O)C(C)C)[C@@H](C)O ({C20 diacid-γGlu}-ASGLSTAVLGRLSQELHELQTLQTYPRTETGSQTY-NH2)	≥ 200	45	≥ 200	–	25	10	8	2	185	≥ 200	≥ 200	99	≥ 200	≥ 200	54
CC(C)C[C@H](NC(=O)CC[C@H](NC(=O)CCCCCCCCCCCCCCCCCCC(=O)O)C(=O)O)C(=O)N[C@@H](CO)C(=O)NCC(=O)N[C@@H](CC(C)C)C(=O)N[C@@H](CO)C(=O)N[C@H](C(=O)N[C@@H](C)C(=O)N[C@H](C(=O)N[C@@H](CC(C)C)C(=O)NCC(=O)N[C@@H](CCCNC(=N)N)C(=O)N[C@@H](CC(C)C)C(=O)N[C@@H](CO)C(=O)N[C@@H](CCC(N)=O)C(=O)N[C@@H](CCC(=O)O)C(=O)N[C@@H](CC(C)C)C(=O)N[C@@H](Cc1cnc[nH]1)C(=O)N[C@@H](CCC(=O)O)C(=O)N[C@@H](CC(C)C)C(=O)N[C@@H](CCC(N)=O)C(=O)N[C@H](C(=O)N[C@@H](Cc1ccc(O)cc1)C(=O)N1CCC[C@H]1C(=O)N[C@@H](CCCNC(=N)N)C(=O)N[C@H](C(=O)N[C@@H](CCC(=O)O)C(=O)N[C@H](C(=O)NCC(=O)N[C@@H](CO)C(=O)N[C@@H](CCC(N)=O)C(=O)N[C@H](C(=O)N[C@@H](Cc1ccc(O)cc1)C(N)=O)[C@@H](C)O)[C@@H](C)O)[C@@H](C)O)[C@@H](C)O)C(C)C)[C@@H](C)O ({C20 diacid-γGlu}-LSGLSTAVLGRLSQELHELQTYPRTETGSQTY-NH2)	≥ 200	–	≥ 200	–	36	21	> 45	100	140	≥ 200	≥ 200	73	≥ 200	≥ 200	31
